Source: patent US11000033B2, “Ketone or oxime compound, and herbicide” (NISSAN CHEMICAL CORPORATION, priority 2014, dated 2021)

What was measured:
Format in all cases: in vivo
[1] = system: rice; assay: Test Example 4: effect on crop by soil treatment (symbol b); settings: application herbicide amount 320 g/ha
In short: (§1)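 Plants grew in a 25° C. to 30° C. greenhouse after spot-sowing of seeds, including beet, rapeseed, wheat and rice, into sterilized diluvial soil under roughly 1.5 cm of cover soil.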

[2] = system: Lolium multiflorum Lam.; assay: Test Example 5: herbicidal effect by foliage application, plastic box (symbol K); settings: 320 g/ha, 3 weeks after application
In short: (§2)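 Greenhouse foliar test: seedlings at 14 days, grown 25° C. to 30° C. in sterilized diluvial soil; compound applied as an aqueous dilution of an emulsion; response read 3 weeks after spraying.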

[3] = system: Alopecurus myosuroides; assay: Test Example 5: herbicidal effect by foliage application, plastic box (symbol J); settings: 320 g/ha, 3 weeks after application
In short: as §2

[4] = system: Scirpus juncoides; assay: Test Example 1: herbicidal activity, application before weed generation in submerged conditions (symbol B); settings: application herbicide amount 320 g/ha
In short: (§3)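 Steps: alluvial soil flooded to 4 cm; weed seeds sown together; rice seedlings (2.5 leaf) transplanted; diluted emulsion applied to water surface the same day as sowing; plants grown at 25–30 °C in greenhouse; herbicidal effect rated on a 0–5 scale at 3 weeks.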

[5] = system: transplanted rice plant; assay: Test Example 1: effect on crop, application before weed generation in submerged conditions (symbol a); settings: application herbicide amount 320 g/ha
In short: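 Rice at 2.5 leaf stage transplanted into submerged soil (4 cm depth) sown with three weed species; herbicide applied before weed emergence.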

[6] = system: soybean; assay: Test Example 4: effect on crop by soil treatment (symbol d); settings: application herbicide amount 320 g/ha
In short: as §1

[7] = system: corn; assay: Test Example 4: effect on crop by soil treatment (symbol c); settings: application herbicide amount 320 g/ha
In short: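 Soil-treatment setup: crop and weed seeds were spot-sown into sterilized diluvial soil, then buried beneath approximately 1.5 cm of it, and the boxes were housed in a 25–30° C. greenhouse.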

[8] = system: Stellaria media; assay: Test Example 4: herbicidal effect by soil treatment (symbol P); settings: application herbicide amount 320 g/ha
In short: (§4)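 Seeds were sown in sterilized diluvial soil, covered with about 1.5 cm of soil, and the soil surface was sprayed with a water-diluted emulsion of the compound at a predetermined rate. Plants grew in a greenhouse at 25° C. to 30° C.; effects were scored visually 3 weeks after application.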

[9] = system: wheat; assay: Test Example 4: effect on crop by soil treatment (symbol e); settings: application herbicide amount 320 g/ha
In short: as §1

[10] = system: Cyperus difformis; assay: Test Example 3: herbicidal effect by foliage application, Wagner pot (symbol E); settings: application herbicide amount 320 g/ha
In short: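 Weeds and rice were sown in alluvial soil under 0.1–0.5 cm of standing water and grown for 14 days in a 25–30 °C greenhouse. An emulsion of the compound, diluted in water to a set dose, was sprayed evenly onto the foliage. Effect was scored against fixed criteria 3 weeks after treatment.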

[11] = system: Alopecurus myosuroides; assay: Test Example 4: herbicidal effect by soil treatment (symbol J); settings: application herbicide amount 320 g/ha
In short: as §4

[12] = system: Galium spurium; assay: Test Example 4: herbicidal effect by soil treatment (symbol Q); settings: application herbicide amount 320 g/ha
In short: as §4

[13] = system: Echinochloa oryzacola Vasing.; assay: Test Example 1: herbicidal activity, application before weed generation in submerged conditions (symbol A); settings: application herbicide amount 320 g/ha
In short: as §3

[14] = system: Setaria viridis; assay: Test Example 5: herbicidal effect by foliage application, plastic box (symbol G); settings: 320 g/ha, 3 weeks after application
In short: as §2

[15] = system: Galium spurium; assay: Test Example 5: herbicidal effect by foliage application, plastic box (symbol Q); settings: 320 g/ha, 3 weeks after application
In short: as §2

SMILES	b: directly sowed rice plant, effect on crop grade [1]	K: Lolium multiflorum Lam., herbicidal effect grade [2]	J: Alopecurus myosuroides, herbicidal effect grade [3]	Herbicidal effect grade, B: Scirpus juncoides [4]	Effect grade on crop, a: transplanted rice plant [5]	d: soybean, effect on crop grade [6]	c: corn, effect on crop grade [7]	P: Stellaria media, herbicidal effect grade [8]	e: wheat, effect on crop grade [9]	herbicidal effect on E, grade 0-5 [10]	J: Alopecurus myosuroides, herbicidal effect grade [11]	Q: Galium spurium, herbicidal effect grade [12]	Herbicidal effect grade, A: Echinochloa oryzacola Vasing. [13]	G: Setaria viridis, herbicidal effect grade [14]	b (directly sowed rice plant) effect on crop grade [1]	d (soybean) effect on crop grade [6]	c (corn) effect on crop grade [7]	J (Alopecurus myosuroides) herbicidal effect grade [11]	Q (Galium spurium) herbicidal effect grade [12]	Q: Galium spurium, herbicidal effect grade [15]
CON=CC1CC(O)=C(c2c(C)cc(C)cc2C)C1=O (mixture of isomers) [3-001]	2 (Herbicidal ratio of 20% or higher and lower than 40%)	4 (Herbicidal ratio of 70% or higher and lower than 90%)	3 (Herbicidal ratio of 40% or higher and lower than 70%)	0 (Herbicidal ratio of 5% or lower (almost no effect))	0 (Herbicidal ratio of 5% or lower (almost no effect))	0 (Herbicidal ratio of 5% or lower (almost no effect))	0 (Herbicidal ratio of 5% or lower (almost no effect))	0 (Herbicidal ratio of 5% or lower (almost no effect))	0 (Herbicidal ratio of 5% or lower (almost no effect))	0 (Herbicidal ratio of 5% or lower (almost no effect))	1 (Herbicidal ratio of 5% or higher and lower than 20%)	0 (Herbicidal ratio of 5% or lower (almost no effect))	0 (Herbicidal ratio of 5% or lower (almost no effect))	3 (Herbicidal ratio of 40% or higher and lower than 70%)	–	–	–	–	–	–
CON=C(C)CC1CC(O)=C(c2c(C)cc(-c3ccc(C(F)(F)F)cc3)cc2C)C1=O (mixture of isomers) [6-016]	2 (Herbicidal ratio of 20% or higher and lower than 40%)	5 (Herbicidal ratio of 90% or more (almost completely withered))	1 (Herbicidal ratio of 5% or higher and lower than 20%)	0 (Herbicidal ratio of 5% or lower (almost no effect))	4 (Herbicidal ratio of 70% or higher and lower than 90%)	0 (Herbicidal ratio of 5% or lower (almost no effect))	0 (Herbicidal ratio of 5% or lower (almost no effect))	0 (Herbicidal ratio of 5% or lower (almost no effect))	0 (Herbicidal ratio of 5% or lower (almost no effect))	1 (Herbicidal ratio of 5% or higher and lower than 20%)	0 (Herbicidal ratio of 5% or lower (almost no effect))	0 (Herbicidal ratio of 5% or lower (almost no effect))	5 (Herbicidal ratio of 90% or more (almost completely withered))	5 (Herbicidal ratio of 90% or more (almost completely withered))	–	–	–	–	–	–
CON=C(C)CC1CC(O)=C(c2c(C)cc(-c3ccc(C)cc3)cc2C)C1=O (mixture of isomers) [6-018]	3 (Herbicidal ratio of 40% or higher and lower than 70%)	5 (Herbicidal ratio of 90% or more (almost completely withered))	5 (Herbicidal ratio of 90% or more (almost completely withered))	5 (Herbicidal ratio of 90% or more (almost completely withered))	5 (Herbicidal ratio of 90% or more (almost completely withered))	0 (Herbicidal ratio of 5% or lower (almost no effect))	0 (Herbicidal ratio of 5% or lower (almost no effect))	0 (Herbicidal ratio of 5% or lower (almost no effect))	0 (Herbicidal ratio of 5% or lower (almost no effect))	5 (Herbicidal ratio of 90% or more (almost completely withered))	5 (Herbicidal ratio of 90% or more (almost completely withered))	0 (Herbicidal ratio of 5% or lower (almost no effect))	5 (Herbicidal ratio of 90% or more (almost completely withered))	5 (Herbicidal ratio of 90% or more (almost completely withered))	–	–	–	–	–	–
CON=C(C)CC1CC(OC(=O)OC)=C(c2c(C)cc(C)cc2C)C1=O (centres unmarked) [1-014]	–	5 (Herbicidal ratio of 90% or more (almost completely withered))	5 (Herbicidal ratio of 90% or more (almost completely withered))	5 (Herbicidal ratio of 90% or more (almost completely withered))	5 (Herbicidal ratio of 90% or more (almost completely withered))	–	–	–	–	5 (Herbicidal ratio of 90% or more (almost completely withered))	–	–	5 (Herbicidal ratio of 90% or more (almost completely withered))	5 (Herbicidal ratio of 90% or more (almost completely withered))	4 (Herbicidal ratio of 70% or higher and lower than 90%)	4 (Herbicidal ratio of 70% or higher and lower than 90%)	4 (Herbicidal ratio of 70% or higher and lower than 90%)	5 (Herbicidal ratio of 90% or more (almost completely withered))	5 (Herbicidal ratio of 90% or more (almost completely withered))	–
CON=C(C)CC1CC(O)=C(c2c(C)cc(C)cc2Br)C1=O (centres unmarked) [6-038]	5 (Herbicidal ratio of 90% or more (almost completely withered))	5 (Herbicidal ratio of 90% or more (almost completely withered))	5 (Herbicidal ratio of 90% or more (almost completely withered))	4 (Herbicidal ratio of 70% or higher and lower than 90%)	5 (Herbicidal ratio of 90% or more (almost completely withered))	1 (Herbicidal ratio of 5% or higher and lower than 20%)	5 (Herbicidal ratio of 90% or more (almost completely withered))	0 (Herbicidal ratio of 5% or lower (almost no effect))	1 (Herbicidal ratio of 5% or higher and lower than 20%)	5 (Herbicidal ratio of 90% or more (almost completely withered))	5 (Herbicidal ratio of 90% or more (almost completely withered))	–	5 (Herbicidal ratio of 90% or more (almost completely withered))	5 (Herbicidal ratio of 90% or more (almost completely withered))	–	–	–	–	–	0 (Herbicidal ratio of 5% or lower (almost no effect))
